Data: paper PMC2732577 (Biochemistry, 2008)
Entries after “also recorded” stand apart in the source; their conditions may differ. Ends that are not written are not given here.

Experiments:
Type in all cases: biochemical
[1] = target: T1, Pf-Sir2 (Plasmodium falciparum, UniProt Q8IE47)
T1 sequence (Q8IE47 1-273): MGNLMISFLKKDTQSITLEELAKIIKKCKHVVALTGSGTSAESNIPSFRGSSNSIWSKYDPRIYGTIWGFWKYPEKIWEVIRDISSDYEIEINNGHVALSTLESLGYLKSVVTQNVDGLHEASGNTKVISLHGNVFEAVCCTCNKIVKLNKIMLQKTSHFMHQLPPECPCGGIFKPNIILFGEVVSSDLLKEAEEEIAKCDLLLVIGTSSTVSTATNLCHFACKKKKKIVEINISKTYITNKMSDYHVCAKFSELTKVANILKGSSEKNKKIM

[2] = target: T1, Pf-Sir2; remark: listed apart in the source
[3] = target: T1, Pf-Sir2; remark: listed apart in the source
[4] = target: T1, Pf-Sir2; experiment: Thionicotinamide base-exchange assay; details: similar reaction conditions, H3 substrate
[5] = target: T1, Pf-Sir2; experiment: Decomposition of AADPR in presence of Pf-Sir2; details: data not shown

Q: Which results are given for NC(=O)c1ccc[n+]([C@@H]2O[C@H](COP(=O)([O-])OP(=O)(O)OC[C@H]3O[C@@H](n4cnc5c(N)ncnc54)[C@H](O)[C@@H]3O)[C@@H](O)[C@H]2O)c1 [NAD^+, nicotinamide adenine dinucleotide oxidized form]?
A: stereochemistry of Pf-Sir2 methanolysis product [1]: inverted stereochemistry; also recorded: only α-1-O-methyl-ADPR as a product (no β); k0 (α-MeO-ADPR) ([1]; pH 8.5): 0.00027 s⁻¹; ksolvolysis (combined ADPR and 1-O-methyl-ADPR) ([1]; pH 8.5): 0.00138 s⁻¹; Km ([2]; read-out: Km for NAD^+ in H3 deacetylation): 120 µM; rate of peptide-independent solvolysis vs deacetylation [3]: exceeds the deacetylation rate for H3; kcat, NAD^+ hydrolysis, no peptide ([3]; pH 7.3): 1.2 ± 0.2 10^−3 s^−1

Q: Which “base-exchange Km, times higher than nicotinamide” value [4] does the source give for NC(=S)c1cccnc1 [thionicotinamide] here?
A: 8 times

Q: And the “base-exchange, times slower than nicotinamide” value [4]?
A: approximately 4 times

Q: For “O-acetyl-adenosine diphosphoribose [AADPR]”, which “decomposition of AADPR on adding Pf-Sir2 to SIRT1 reaction mixture” value [5] is on record?
A: not decomposed

Q: And the “decomposition of purified AADPR in presence of Pf-Sir2” value ([5]; relative to a control)?
A: not decomposed faster relative to a control

Q: How did the deacetylation co-product [2] turn out when “p300: human di-acetylated p300 sequence corresponding to amino acid positions 1034–1053 (ATQSSPAPGQSKKKIFKPEE; also: di-acetylated, places not given here; UniProt Q09472 1034-1053, looked up, fragment)” was run?
A: 2′- and 3′- O-acetyl-ADP-ribose (AADPR)

Q: What about the “stimulation of NAD^+ hydrolysis by peptide” value [3] of the same compound?
A: best hydrolysis stimulating substrate
